Reference: the NIST ThermoML archive (doi:10.1016/j.tca.2013.09.023)
Numbers after ± are expanded uncertainties.

What was measured:
[1] = DTA; for Normal melting temperature: Crystal
[2] = Molar enthalpy of transition or fusion; settings: DSC

| SMILES | Normal melting temperature [1] | Molar enthalpy of transition or fusion ([2]; Crystal) | Triple point temperature ([1]; Crystal 2) | Molar enthalpy of transition or fusion ([2]; Crystal 2) | Glass transition temperature ([1]; Glass) |
| --- | --- | --- | --- | --- | --- |
| CCCCn1cc[n+](C)c1.[Br-] [1-butyl-3-methylimidazolium bromide] | 78.00 ± 2 °C | 6.93 ± 0.239 kcal/mol | – | – | – |
| CCCCn1cc[n+](C)c1.[Cl-] [1-butyl-3-methylimidazolium chloride] | 74.00 ± 2 °C | 4.3 ± 0.239 kcal/mol | 303.15 ± 2 K | 0.645 ± 0.143 kcal/mol | – |
| CCCCn1cc[n+](C)c1.[I-] [1-butyl-3-methylimidazolium iodide] | – | – | – | – | -70.00 ± 5 °C |
